Assay results from patent US20230382924A1, “MODULATORS OF CYSTIC FIBROSIS TRANSMEMBRANE CONDUCTANCE REGULATOR” (VERTEX PHARMACEUTICALS INCORPORATED, priority 2020, published 2023).
Where two headings read alike, the source gives them in different places.

Target: CFTR (Homo sapiens, UniProt P13569)
Experiment: Membrane Potential Dye, Enteroid Assay A
Assay type: cell-based
Settings: for EC50: read-out: Ent. A EC50
Method in brief: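 Enteroid cells were loaded with methyl oxonol membrane potential dye (plus CaCCinh-A01 and Chicago Sky Blue) for 25 min at room temperature. Chloride transport was started by switching to chloride-free gluconate stimulation solution, with fluorescence read for 15 min. Activity was expressed as % of a triple-combination CFTR modulator control (3 μM, 3 μM, 300 nM acute).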

Sequence of CFTR (P13569 with tags, fused parts or gaps DEL508-508): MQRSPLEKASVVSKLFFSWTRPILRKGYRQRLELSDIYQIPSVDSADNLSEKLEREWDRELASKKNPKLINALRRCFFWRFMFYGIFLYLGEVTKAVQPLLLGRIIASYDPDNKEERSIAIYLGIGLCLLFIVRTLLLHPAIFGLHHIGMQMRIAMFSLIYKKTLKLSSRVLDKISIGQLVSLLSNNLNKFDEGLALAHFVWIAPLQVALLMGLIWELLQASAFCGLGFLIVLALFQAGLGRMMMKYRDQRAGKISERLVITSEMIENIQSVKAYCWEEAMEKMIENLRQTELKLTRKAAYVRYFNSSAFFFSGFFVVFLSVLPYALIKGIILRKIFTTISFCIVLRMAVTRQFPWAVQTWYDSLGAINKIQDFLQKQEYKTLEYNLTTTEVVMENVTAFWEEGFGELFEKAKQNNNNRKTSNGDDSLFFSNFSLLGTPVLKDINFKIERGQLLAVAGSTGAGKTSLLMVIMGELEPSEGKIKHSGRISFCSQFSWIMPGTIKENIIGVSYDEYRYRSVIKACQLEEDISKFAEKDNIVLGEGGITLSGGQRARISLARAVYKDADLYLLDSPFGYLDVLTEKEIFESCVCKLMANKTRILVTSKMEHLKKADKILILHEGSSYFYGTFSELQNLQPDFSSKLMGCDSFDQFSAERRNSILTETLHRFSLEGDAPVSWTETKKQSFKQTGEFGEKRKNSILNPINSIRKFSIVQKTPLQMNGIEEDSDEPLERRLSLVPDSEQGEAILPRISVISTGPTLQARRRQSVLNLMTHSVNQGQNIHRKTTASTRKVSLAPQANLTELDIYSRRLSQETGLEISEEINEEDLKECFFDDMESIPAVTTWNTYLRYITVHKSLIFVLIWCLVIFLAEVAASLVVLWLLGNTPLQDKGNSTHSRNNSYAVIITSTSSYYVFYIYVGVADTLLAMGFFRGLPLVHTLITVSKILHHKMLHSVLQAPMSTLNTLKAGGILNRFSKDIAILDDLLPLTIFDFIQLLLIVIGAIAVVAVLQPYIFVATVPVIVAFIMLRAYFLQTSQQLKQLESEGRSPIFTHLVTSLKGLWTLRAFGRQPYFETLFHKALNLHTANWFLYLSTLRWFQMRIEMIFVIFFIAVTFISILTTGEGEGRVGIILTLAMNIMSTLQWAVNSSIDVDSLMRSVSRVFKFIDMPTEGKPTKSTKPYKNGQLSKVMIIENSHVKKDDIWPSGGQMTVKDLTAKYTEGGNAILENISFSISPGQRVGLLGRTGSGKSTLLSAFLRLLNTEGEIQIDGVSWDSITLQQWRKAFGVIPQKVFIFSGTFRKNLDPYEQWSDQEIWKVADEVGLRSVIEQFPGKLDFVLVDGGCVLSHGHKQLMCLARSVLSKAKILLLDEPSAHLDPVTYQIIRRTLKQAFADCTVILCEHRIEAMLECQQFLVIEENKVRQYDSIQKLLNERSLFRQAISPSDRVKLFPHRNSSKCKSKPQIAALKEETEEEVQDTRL

Compound: Cc1cccc(C)c1-c1cc2nc(n1)NS(=O)(=O)c1cccc(c1)C(=O)NC1(CCCC1)CO2 [Compound 360]
- Ent. A Max Activity (Table 8): +++ (+++ is >60%)
- EC50 (Table 8): < 1000 nM

Compound: Cc1cccc(C)c1-c1cc2nc(n1)NS(=O)(=O)c1cccc(c1)C(=O)NCC(c1ccc([Si](C)(C)C)cc1)O2 (stereo not drawn) [Compound 15, 6-(2,6-Dimethylphenyl)-2,2-dioxo-10-(4-trimethylsilylphenyl)-9-oxa-2λ^6-thia-3,5,12,19-tetrazatricyclo[12.3.1.14,8]nonadeca-1(18),4(19),5,7,14,16-hexaen-13-one]
- EC50 (Table 9): < 1000 nM

Compound: Cc1cccc(C)c1-c1cc2nc(n1)NS(=O)(=O)c1cccc(c1)C(=O)NC1c3ccccc3CC1O2 (stereo not drawn) [Compound 489]
- Ent. A Max Activity (Enteroid Assay A): +++ (+++ is >600%)
- EC50 (Enteroid Assay A): < 1000 nM

Compound: Cc1cccc(C)c1-c1cc2nc(n1)NS(=O)(=O)c1cccc(c1)C(=O)NCC(c1ccc(Cl)cc1)O2 (stereo not drawn) [Compound 251]
- Ent. A Max Activity (Table 8): +++ (+++ is >60%)
- EC50 (Table 8): < 1000 nM

Compound: Cc1cccc(C)c1-c1cc2cc(n1)NS(=O)(=O)c1cccc(c1)C(=O)N[C@H](CC(C)C)CO2 [Compound 296]
- Ent. A Max Activity (Table 8): +++ (+++ is >60%)
- EC50 (Table 8): < 1000 nM

Compound: Cc1cccc(C)c1-c1cc2nc(n1)NS(=O)(=O)c1cccc(c1)C(=O)N[C@H]1CCN(CCC(C)(C)C)C[C@H]1O2 (single isomer, unassigned) [Compound 90, 5-(3,3-dimethylbutyl)-20-(2,6-dimethylphenyl)-2-oxa-16λ^6-thia-5,9,17,19,22-pentaazatetracyclo[16.3.1.111,15.03,8]tricosa-1(21),11(23),12,14,18(22),19-hexaene-10,16,16-trione]
- Ent. A Max Activity (Table 9): +++ (+++ is >60%)
- EC50 (Table 9): 1000 to 3000 nM

Compound: CC[C@H]1NC(=O)c2cccc(c2)S(=O)(=O)Nc2nc(cc(-c3c(C)cccc3C)n2)O[C@@H]1c1ccc(C(C)(C)C)cc1 [Compound 133]
- Ent. A Max Activity (Table 9): +++ (+++ is >60%)
- EC50 (Table 9): < 1000 nM

Compound: Cc1cccc(C)c1-c1cc2nc(n1)NS(=O)(=O)c1cccc(c1)C(=O)N[C@H](CC1CCOCC1)CO2 (stereo in doubt) [Compound 191]
- Ent. A Max Activity (Enteroid Assay A): +++ (+++ is >600%)
- EC50 (Enteroid Assay A): 3000 to 30000 nM

Compound: Cc1cccc(C)c1-c1cc2nc(n1)NS(=O)(=O)c1cccc(c1)C(=O)N[C@H](CCC(F)(F)F)CO2 (stereo in doubt) [Compound 190]
- Ent. A Max Activity (Table 8): +++ (+++ is >60%)
- EC50 (Table 8): < 1000 nM

Compound: Cc1cccc(C)c1-c1cc2nc(n1)NS(=O)(=O)c1cccc(c1)C(=O)N[C@@H](CC(C)(C)C)[C@H](C)O2 [Compound 130]
- Ent. A Max Activity (Table 9): +++ (+++ is >60%)
- EC50 (Table 9): < 1000 nM

Compound: CCCC(NC(=O)OC(C)(C)C)C(=O)N1CCC2(CC1)CNC(=O)c1cccc(c1)S(=O)(=O)Nc1nc(cc(-c3c(C)cccc3C)n1)OC2 (stereo not drawn) [Compound 449]
- Ent. A Max Activity (Enteroid Assay A): ++ (++ is 30-60%)

Compound: Cc1cccc(C)c1-c1cc2nc(n1)NS(=O)(=O)c1cccc(c1)C(=O)NCC(c1ccc(C3CCC3)cc1)O2 (single isomer, unassigned) [Compound 14, 10-(4-cyclobutylphenyl)-6-(2,6-dimethylphenyl)-2,2-dioxo-9-oxa-2λ^6-thia-3,5,12,19-tetrazatricyclo[12.3.1.14,8]nonadeca-1(18),4(19),5,7,14,16-hexaen-13-one]
- Ent. A Max Activity (Table 9): +++ (+++ is >60%)
- EC50 (Table 9): < 1000 nM

Compound: Cc1cccc(C)c1-c1cc2nc(n1)NS(=O)(=O)c1cccc(c1)C(=O)N[C@H](CC(C)C)C(C1CC1)O2 (stereo partly drawn) [Compound 238]
- Ent. A Max Activity (Table 8): +++ (+++ is >60%)
- EC50 (Table 8): 1000 to 3000 nM

Compound: Cc1cccc(C)c1-c1cc2nc(n1)NS(=O)(=O)c1cccc(c1)CNC1C[C@@H](CN(C(=O)OCc3ccccc3)C1)O2 (stereo in doubt) [Compound 193]
- Ent. A Max Activity (Enteroid Assay A): ++ (++ is 30-60%)
- EC50 (Enteroid Assay A): 1000 to 3000 nM

Compound: Cc1cccc(C)c1-c1cc2nc(n1)NS(=O)(=O)c1cccc(c1)C(=O)N[C@@H](CC(F)(F)F)CO2 (single isomer, unassigned) [Compound 94, 6-(2,6-dimethylphenyl)-11-(2,2,2-trifluoroethyl)-9-oxa-2λ^6-thia-3,5,12,19-tetraazatricyclo[12.3.1.14,8]nonadeca-1(17),4(19),5,7,14(18),15-hexaene-2,2,13-trione]
- Ent. A Max Activity (Table 9): +++ (+++ is >60%)
- EC50 (Table 9): 1000 to 3000 nM

Compound: Cc1cccc(C)c1-c1cc2nc(n1)NS(=O)(=O)c1cccc(c1)C(=O)NCC(Cc1ccc(C(C)(C)C)cc1)O2 (stereo not drawn) [Compound 241]
- Ent. A Max Activity (Table 8): +++ (+++ is >60%)
- EC50 (Table 8): < 1000 nM

Compound: CC(C)C[C@@H]1COc2cc(-c3ccccc3C(C)C)nc(n2)NS(=O)(=O)c2cccc(c2)C(=O)N1 [Compound 345]
- Ent. A Max Activity (Enteroid Assay A): +++ (+++ is >600%)
- EC50 (Enteroid Assay A): < 1000 nM

Compound: CCC(C)(C)C(=O)N1CC[C@H]2Oc3cc(-c4c(C)cccc4C)nc(n3)NS(=O)(=O)c3cccc(c3)C(=O)N[C@@H]2C1 [Compound 370]
- Ent. A Max Activity (Table 9): +++ (+++ is >60%)
- EC50 (Table 9): 1000 to 3000 nM

Compound: Cc1cccc(C)c1-c1cc2nc(n1)NS(=O)(=O)c1cccc(c1)C(=O)NCC(c1ccc(C(F)(F)F)cc1)O2 (stereo not drawn) [Compound 403]
- EC50 (Table 8): < 1000 nM

Compound: Cc1cccc(C)c1-c1cc2nc(n1)NS(=O)(=O)c1cccc(c1)C(=O)N[C@@H]1CN(C3CCC4(CC3)CC4)CC[C@H]1O2 [Compound 374]
- Ent. A Max Activity (Table 9): +++ (+++ is >60%)
- EC50 (Table 9): 1000 to 3000 nM

Compound: Cc1cccc(C)c1-c1cc2nc(n1)NS(=O)(=O)c1cccc(c1)C(=O)NCC(c1cnc(C(C)(C)C)nc1)O2 (stereo not drawn) [Compound 285]
- Ent. A Max Activity (Table 8): + (+ is <30%)

Compound: CCC(CC)(CC)c1ccc([C@@H]2CNC(=O)c3cccc(c3)S(=O)(=O)Nc3nc(cc(-c4c(C)cccc4C)n3)O2)cc1 [Compound 258]
- Ent. A Max Activity (Table 9): +++ (+++ is >60%)
- EC50 (Table 9): < 1000 nM

Compound: Cc1cccc(C)c1-c1cc2nc(n1)NS(=O)(=O)c1cccc(c1)C(=O)NCC1(CCN(C(=O)c3c(C)c4ccccc4n3C)CC1)CO2 [Compound 455]
- Ent. A Max Activity (Enteroid Assay A): ++ (++ is 30-60%)
- EC50 (Enteroid Assay A): 1000 to 3000 nM

Compound: Cc1cccc(C)c1-c1cc2nc(n1)NS(=O)(=O)c1cccc(c1)C(=O)NCC(c1ccc(C[Si](C)(C)C)cc1)O2 (stereo not drawn) [Compound 128]
- EC50 (Table 9): < 1000 nM

Compound: COc1ccc(C)c(-c2cc3nc(n2)NS(=O)(=O)c2cccc(c2)C(=O)N[C@H](CC(C)C)CO3)c1 [Compound 302]
- Ent. A Max Activity (Table 8): +++ (+++ is >60%)
- EC50 (Table 8): 1000 to 3000 nM

Compound: COc1cc(C)c(CN2CCC3(CC2)CNC(=O)c2cccc(c2)S(=O)(=O)Nc2nc(cc(-c4c(C)cccc4C)n2)OC3)cc1C [Compound 438]
- Ent. A Max Activity (Enteroid Assay A): ++ (++ is 30-60%)
- EC50 (Enteroid Assay A): 1000 to 3000 nM

Compound: Cc1ccccc1[C@@H]1Oc2cc(-c3c(C)cccc3C)nc(n2)NS(=O)(=O)c2cccc(c2)C(=O)N[C@@H]1CC(C)C [Compound 162]
- EC50 (Enteroid Assay A): < 1000 nM

Compound: Cc1cccc(C)c1-c1cc2nc(n1)NS(=O)(=O)c1cccc(c1)C(=O)N[C@@H](CCC(C)(C)C)CO2 (single isomer, unassigned) [Compound 48]
- Ent. A Max Activity (Table 8): + (+ is <30%)
- EC50 (Table 8): < 1000 nM

Compound: Cc1ccc(C2CNC(=O)c3cccc(c3)S(=O)(=O)Nc3nc(cc(-c4c(C)cccc4C)n3)O2)cc1 (stereo not drawn) [Compound 407]
- Ent. A Max Activity (Table 8): +++ (+++ is >60%)
- EC50 (Table 8): < 1000 nM

Compound: Cc1cccc(C)c1-c1cc2nc(n1)NS(=O)(=O)c1cccc(c1)C(=O)NC(CC1CCCC1)CO2 (stereo not drawn) [Compound 188]
- Ent. A Max Activity (Table 8): +++ (+++ is >60%)
- EC50 (Table 8): < 1000 nM

Compound: Cc1cccc(C)c1-c1cc2nc(n1)NS(=O)(=O)c1cccc(c1)C(=O)N[C@H]1CCCC[C@H]1O2 [Compound 364]
- Ent. A Max Activity (Enteroid Assay A): ++ (++ is 30-60%)
- EC50 (Enteroid Assay A): 3000 to 30000 nM

Compound: COC(=O)c1cc(CN2CCC3(CC2)CNC(=O)c2cccc(c2)S(=O)(=O)Nc2nc(cc(-c4c(C)cccc4C)n2)OC3)ccc1F [Compound 437]
- Ent. A Max Activity (Enteroid Assay A): ++ (++ is 30-60%)
- EC50 (Enteroid Assay A): 3000 to 30000 nM

Compound: Cc1cccc(C)c1-c1cc2nc(n1)NS(=O)(=O)c1cccc(c1)C(=O)NCC(c1ccc(C34CC(C3)C4)cc1)O2 (stereo not drawn) [Compound 398]
- Ent. A Max Activity (Table 9): +++ (+++ is >60%)
- EC50 (Table 9): < 1000 nM

Compound: CC(C)C[C@@H]1COc2cc(C3C(C)CCCC3C)nc(n2)NS(=O)(=O)c2cccc(c2)C(=O)N1 (stereo partly drawn) [Compound 301]
- EC50 (Table 8): 3000 to 30000 nM

Compound: Cc1cccc(C)c1-c1cc2nc(n1)NS(=O)(=O)c1cccc(c1)C(=O)NCC(c1ccc3ccccc3c1)O2 (stereo not drawn) [Compound 253]
- Ent. A Max Activity (Table 8): +++ (+++ is >60%)
- EC50 (Table 8): < 1000 nM

Compound: Cc1cccc(C)c1-c1cc2nc(n1)NS(=O)(=O)c1cccc(c1)C(=O)NCC(C1CCC(C)(C)CC1)O2 (stereo not drawn) [Compound 283]
- Ent. A Max Activity (Table 9): +++ (+++ is >60%)
- EC50 (Table 9): < 1000 nM

Compound: Cc1cccc(C)c1-c1cc2nc(n1)NS(=O)(=O)c1cccc(c1)C(=O)NCc1cccc(c1)O2 [Compound 197]
- Ent. A Max Activity (Enteroid Assay A): ++ (++ is 30-60%)
- EC50 (Enteroid Assay A): 3000 to 30000 nM

Compound: COc1ccccc1-c1cc2nc(n1)NS(=O)(=O)c1cccc(c1)C(=O)N[C@H](CC(C)C)CO2 [Compound 330]
- Ent. A Max Activity (Enteroid Assay A): ++ (++ is 30-60%)

Compound: Cc1cccc(C)c1-c1cc2nc(n1)NS(=O)(=O)c1cccc(c1)C(=O)N[C@@H]1CCN(Cc3ccccc3)C[C@H]1O2 (stereo in doubt) [Compound 382]
- Ent. A Max Activity (Table 9): +++ (+++ is >60%)
- EC50 (Table 9): < 1000 nM

Compound: CCC[C@H](NC(=O)OC(C)(C)C)C(=O)N1CCC2(CC1)CNC(=O)c1cccc(c1)S(=O)(=O)Nc1nc(cc(-c3c(C)cccc3C)n1)OC2 [Compound 469]
- Ent. A Max Activity (Enteroid Assay A): ++ (++ is 30-60%)
- EC50 (Enteroid Assay A): 3000 to 30000 nM

Compound: Cc1nc(C(F)(F)F)c(C(=O)N2CCC3(CC2)CNC(=O)c2cccc(c2)S(=O)(=O)Nc2nc(cc(-c4c(C)cccc4C)n2)OC3)s1 [Compound 460]
- Ent. A Max Activity (Enteroid Assay A): ++ (++ is 30-60%)

Compound: Cc1cccc(C)c1-c1cc2nc(n1)NS(=O)(=O)c1ccccc1C(=O)NCC(c1ccc(C(C)(C)C)cc1)O2 (stereo not drawn) [Compound 222]
- Ent. A Max Activity (Table 9): + (+ is <30%)

Compound: Cc1cccc(C)c1-c1cc2nc(n1)NS(=O)(=O)c1cccc(c1)C(=O)N[C@H](CC1CCC(F)(F)CC1)CO2 [Compound 187]
- Ent. A Max Activity (Table 8): +++ (+++ is >60%)
- EC50 (Table 8): < 1000 nM

Compound: Cc1cccc(CO)c1-c1cc2nc(n1)NS(=O)(=O)c1cccc(c1)C(=O)N[C@H](CC(C)C)CO2 [Compound 395]
- Ent. A Max Activity (Table 9): ++ (++ is 30-60%)
- EC50 (Table 9): 3000 to 30000 nM
